Measurements from ChEMBL document CHEMBL2429768, “Eco-friendly synthesis and antimicrobial activities of substituted-5-(1H-indol-3-yl)methylene)-2,2-dimethyl-1,3-dioxane-4,6-dione derivatives” (2013).
Converted amounts (≈) assume the structure as drawn.

Key:
Assay type in all cases: functional
Klebsiella pneumoniae [1] = assay: Antibacterial activity against Klebsiella pneumoniae at 500 ug/ml after 24 hrs by agar well diffusion method; settings: read-out: DIZ
Rhizoctonia solani [2] = assay: Antifungal activity against Rhizoctonia solani at 50 ug/ml after 72 hrs by agar well diffusion method; settings: read-out: DIZ
Aspergillus flavus [3] = assay: Antifungal activity against Aspergillus flavus after 72 hrs by agar well diffusion method
Aspergillus niger [4] = assay: Antifungal activity against Aspergillus niger after 72 hrs by agar well diffusion method
Fusarium oxysporum [5] = assay: Antifungal activity against Fusarium oxysporum after 72 hrs by agar well diffusion method
Escherichia coli [6] = assay: Antibacterial activity against Escherichia coli ATCC 8739 after 24 hrs by agar well diffusion method; settings: ATCC 8739, 24 h
Aspergillus niger [7] = assay: Antifungal activity against Aspergillus niger at 100 ug/ml after 72 hrs by agar well diffusion method; settings: read-out: DIZ
Aspergillus flavus [8] = assay: Antifungal activity against Aspergillus flavus at 300 ug/ml after 72 hrs by agar well diffusion method; settings: read-out: DIZ
Fusarium oxysporum [9] = assay: Antifungal activity against Fusarium oxysporum at 100 ug/ml after 72 hrs by agar well diffusion method; settings: read-out: DIZ
Aspergillus flavus [10] = assay: Antifungal activity against Aspergillus flavus at 100 ug/ml after 72 hrs by agar well diffusion method; settings: read-out: DIZ
Bacillus subtilis [11] = assay: Antibacterial activity against Bacillus subtilis at 50 ug/ml after 24 hrs by agar well diffusion method; settings: read-out: DIZ
Klebsiella pneumoniae [12] = assay: Antibacterial activity against Klebsiella pneumoniae after 24 hrs by agar well diffusion method
Fusarium oxysporum [13] = assay: Antifungal activity against Fusarium oxysporum at 200 ug/ml after 72 hrs by agar well diffusion method; settings: read-out: DIZ
Fusarium oxysporum [14] = assay: Antifungal activity against Fusarium oxysporum at 300 ug/ml after 72 hrs by agar well diffusion method; settings: read-out: DIZ
Escherichia coli [15] = assay: Antibacterial activity against Escherichia coli ATCC 8739 at 500 ug/ml after 24 hrs by agar well diffusion method; settings: ATCC 8739, 24 h, read-out: DIZ
Bacillus subtilis [16] = assay: Antibacterial activity against Bacillus subtilis at 500 ug/ml after 24 hrs by agar well diffusion method; settings: read-out: DIZ
Klebsiella pneumoniae [17] = assay: Antibacterial activity against Klebsiella pneumoniae at 200 ug/ml after 24 hrs by agar well diffusion method; settings: read-out: DIZ
Bacillus subtilis [18] = assay: Antibacterial activity against Bacillus subtilis at 300 ug/ml after 24 hrs by agar well diffusion method; settings: read-out: DIZ
Aspergillus flavus [19] = assay: Antifungal activity against Aspergillus flavus at 200 ug/ml after 72 hrs by agar well diffusion method; settings: read-out: DIZ
Aspergillus niger [20] = assay: Antifungal activity against Aspergillus niger at 50 ug/ml after 72 hrs by agar well diffusion method; settings: read-out: DIZ
Rhizoctonia solani [21] = assay: Antifungal activity against Rhizoctonia solani at 300 ug/ml after 72 hrs by agar well diffusion method; settings: read-out: DIZ
Klebsiella pneumoniae [22] = assay: Antibacterial activity against Klebsiella pneumoniae at 100 ug/ml after 24 hrs by agar well diffusion method; settings: read-out: DIZ
Aspergillus niger [23] = assay: Antifungal activity against Aspergillus niger at 500 ug/ml after 72 hrs by agar well diffusion method; settings: read-out: DIZ
Aspergillus flavus [24] = assay: Antifungal activity against Aspergillus flavus at 500 ug/ml after 72 hrs by agar well diffusion method; settings: read-out: DIZ
Staphylococcus aureus [25] = assay: Antibacterial activity against Staphylococcus aureus ATCC 6538 at 200 ug/ml after 24 hrs by agar well diffusion method; settings: ATCC 6538, 24 h, read-out: DIZ
Escherichia coli [26] = assay: Antibacterial activity against Escherichia coli ATCC 8739 at 300 ug/ml after 24 hrs by agar well diffusion method; settings: ATCC 8739, 24 h, read-out: DIZ
Fusarium oxysporum [27] = assay: Antifungal activity against Fusarium oxysporum at 50 ug/ml after 72 hrs by agar well diffusion method; settings: read-out: DIZ
Aspergillus flavus [28] = assay: Antifungal activity against Aspergillus flavus at 50 ug/ml after 72 hrs by agar well diffusion method; settings: read-out: DIZ
Fusarium oxysporum [29] = assay: Antifungal activity against Fusarium oxysporum at 500 ug/ml after 72 hrs by agar well diffusion method; settings: read-out: DIZ
Staphylococcus aureus [30] = assay: Antibacterial activity against Staphylococcus aureus ATCC 6538 at 500 ug/ml after 24 hrs by agar well diffusion method; settings: ATCC 6538, 24 h, read-out: DIZ
Escherichia coli [31] = assay: Antibacterial activity against Escherichia coli ATCC 8739 at 200 ug/ml after 24 hrs by agar well diffusion method; settings: ATCC 8739, 24 h, read-out: DIZ
Bacillus subtilis [32] = assay: Antibacterial activity against Bacillus subtilis at 200 ug/ml after 24 hrs by agar well diffusion method; settings: read-out: DIZ
Staphylococcus aureus [33] = assay: Antibacterial activity against Staphylococcus aureus ATCC 6538 at 50 ug/ml after 24 hrs by agar well diffusion method; settings: ATCC 6538, 24 h, read-out: DIZ
Staphylococcus aureus [34] = assay: Antibacterial activity against Staphylococcus aureus ATCC 6538 after 24 hrs by agar well diffusion method; settings: ATCC 6538, 24 h
Klebsiella pneumoniae [35] = assay: Antibacterial activity against Klebsiella pneumoniae at 300 ug/ml after 24 hrs by agar well diffusion method; settings: read-out: DIZ
Rhizoctonia solani [36] = assay: Antifungal activity against Rhizoctonia solani at 200 ug/ml after 72 hrs by agar well diffusion method; settings: read-out: DIZ
Staphylococcus aureus [37] = assay: Antibacterial activity against Staphylococcus aureus ATCC 6538 at 300 ug/ml after 24 hrs by agar well diffusion method; settings: ATCC 6538, 24 h, read-out: DIZ
Escherichia coli [38] = assay: Antibacterial activity against Escherichia coli ATCC 8739 at 50 ug/ml after 24 hrs by agar well diffusion method; settings: ATCC 8739, 24 h, read-out: DIZ
Rhizoctonia solani [39] = assay: Antifungal activity against Rhizoctonia solani at 500 ug/ml after 72 hrs by agar well diffusion method; settings: read-out: DIZ
Bacillus subtilis [40] = assay: Antibacterial activity against Bacillus subtilis after 24 hrs by agar well diffusion method
Escherichia coli [41] = assay: Antibacterial activity against Escherichia coli ATCC 8739 at 100 ug/ml after 24 hrs by agar well diffusion method; settings: ATCC 8739, 24 h, read-out: DIZ
Staphylococcus aureus [42] = assay: Antibacterial activity against Staphylococcus aureus ATCC 6538 at 100 ug/ml after 24 hrs by agar well diffusion method; settings: ATCC 6538, 24 h, read-out: DIZ
Rhizoctonia solani [43] = assay: Antifungal activity against Rhizoctonia solani at 100 ug/ml after 72 hrs by agar well diffusion method; settings: read-out: DIZ
Aspergillus niger [44] = assay: Antifungal activity against Aspergillus niger at 300 ug/ml after 72 hrs by agar well diffusion method; settings: read-out: DIZ
Aspergillus niger [45] = assay: Antifungal activity against Aspergillus niger at 200 ug/ml after 72 hrs by agar well diffusion method; settings: read-out: DIZ
Klebsiella pneumoniae [46] = assay: Antibacterial activity against Klebsiella pneumoniae at 50 ug/ml after 24 hrs by agar well diffusion method; settings: read-out: DIZ
Rhizoctonia solani [47] = assay: Antifungal activity against Rhizoctonia solani after 72 hrs by agar well diffusion method
Bacillus subtilis [48] = assay: Antibacterial activity against Bacillus subtilis at 100 ug/ml after 24 hrs by agar well diffusion method; settings: read-out: DIZ

MIC (Aspergillus flavus [3]): 40 µg/mL (≈ 110 µM)
MIC (Aspergillus niger [4]): 40 µg/mL (≈ 110 µM)
MIC (Fusarium oxysporum [5]): 35 µg/mL (≈ 96.1 µM)
MIC (Escherichia coli [6]): 15 µg/mL (≈ 41.2 µM)
MIC (Klebsiella pneumoniae [12]): 15 µg/mL (≈ 41.2 µM)
MIC (Staphylococcus aureus [34]): 25 µg/mL (≈ 68.6 µM)
MIC (Bacillus subtilis [40]): 30 µg/mL (≈ 82.4 µM)
MIC (Rhizoctonia solani [47]): 35 µg/mL (≈ 96.1 µM)
Compound: Cn1cc(C=C2C(=O)OC(C)(C)OC2=O)c2cc(Br)ccc21
zone of inhibition at 500 µg/mL (Klebsiella pneumoniae [1]): 32 mm
zone of inhibition at 50 µg/mL (Rhizoctonia solani [2]): 7 mm
zone of inhibition at 100 µg/mL (Aspergillus niger [7]): 10 mm
zone of inhibition at 300 µg/mL (Aspergillus flavus [8]): 15 mm
zone of inhibition at 100 µg/mL (Fusarium oxysporum [9]): 12 mm
zone of inhibition at 100 µg/mL (Aspergillus flavus [10]): 9 mm
zone of inhibition at 50 µg/mL (Bacillus subtilis [11]): 5 mm
zone of inhibition at 200 µg/mL (Fusarium oxysporum [13]): 16 mm
zone of inhibition at 300 µg/mL (Fusarium oxysporum [14]): 21 mm
zone of inhibition at 500 µg/mL (Escherichia coli [15]): 30 mm
zone of inhibition at 500 µg/mL (Bacillus subtilis [16]): 23 mm
zone of inhibition at 200 µg/mL (Klebsiella pneumoniae [17]): 18 mm
zone of inhibition at 300 µg/mL (Bacillus subtilis [18]): 15 mm
zone of inhibition at 200 µg/mL (Aspergillus flavus [19]): 12 mm
zone of inhibition at 50 µg/mL (Aspergillus niger [20]): 6 mm
zone of inhibition at 300 µg/mL (Rhizoctonia solani [21]): 21 mm
zone of inhibition at 100 µg/mL (Klebsiella pneumoniae [22]): 14 mm
zone of inhibition at 500 µg/mL (Aspergillus niger [23]): 25 mm
zone of inhibition at 500 µg/mL (Aspergillus flavus [24]): 23 mm
zone of inhibition at 200 µg/mL (Staphylococcus aureus [25]): 13 mm
zone of inhibition at 300 µg/mL (Escherichia coli [26]): 21 mm
zone of inhibition at 50 µg/mL (Fusarium oxysporum [27]): 7 mm
zone of inhibition at 50 µg/mL (Aspergillus flavus [28]): 4 mm
zone of inhibition at 500 µg/mL (Fusarium oxysporum [29]): 29 mm
zone of inhibition at 500 µg/mL (Staphylococcus aureus [30]): 25 mm
zone of inhibition at 200 µg/mL (Escherichia coli [31]): 14 mm
zone of inhibition at 200 µg/mL (Bacillus subtilis [32]): 11 mm
zone of inhibition at 50 µg/mL (Staphylococcus aureus [33]): 6 mm
zone of inhibition at 300 µg/mL (Klebsiella pneumoniae [35]): 23 mm
zone of inhibition at 200 µg/mL (Rhizoctonia solani [36]): 16 mm
zone of inhibition at 300 µg/mL (Staphylococcus aureus [37]): 17 mm
zone of inhibition at 50 µg/mL (Escherichia coli [38]): 8.4 mm
zone of inhibition at 500 µg/mL (Rhizoctonia solani [39]): 29 mm
zone of inhibition at 100 µg/mL (Escherichia coli [41]): 13.5 mm
zone of inhibition at 100 µg/mL (Staphylococcus aureus [42]): 10 mm
zone of inhibition at 100 µg/mL (Rhizoctonia solani [43]): 12 mm
zone of inhibition at 300 µg/mL (Aspergillus niger [44]): 18 mm
zone of inhibition at 200 µg/mL (Aspergillus niger [45]): 14 mm
zone of inhibition at 50 µg/mL (Klebsiella pneumoniae [46]): 9 mm
zone of inhibition at 100 µg/mL (Bacillus subtilis [48]): 9.5 mm
